Values joined by “and” are separate entries in the source; they are usually repeats but may differ in a detail not shown here. Equal values may be shown once.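 Following 48 hours of exposure in 96-well plates, responses at five concentrations were used to interpolate endpoints linearly. Here, GI50 denotes the concentration required for 50% inhibition of growth. At the TGI there is no net growth.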
Key:
Assay in all cases: growth of human tumour cells (NCI), 48 h
[1] = test system: SNB-19 CNS
[2] = test system: A498 renal
[3] = test system: SNB-75 CNS
[4] = test system: HOP-92 NSCLC
[5] = test system: NCI-H522 lung
[6] = test system: K-562 leukemia
[7] = test system: SW-620 colon
[8] = test system: U251 CNS
[9] = test system: 786-0 renal
[10] = test system: HT29 colon

| SMILES | GI50 [1] | TGI [1] | GI50 [2] | TGI [2] | GI50 [3] | TGI [3] | GI50 [4] | TGI [4] | GI50 [5] | TGI [5] | GI50 [6] | TGI [6] | GI50 [7] | TGI [7] | GI50 [8] | TGI [8] | GI50 [9] | TGI [9] | TGI [10] | GI50 [10] |
| --- | --- | --- | --- | --- | --- | --- | --- | --- | --- | --- | --- | --- | --- | --- | --- | --- | --- | --- | --- | --- |
| C/C(=N/NC(=S)Nc1ccccc1)c1nc2ccc(Cl)cc2[nH]1 | 0.25 µM | 1.71 µM | 0.0806 µM | 0.708 µM | 0.328 µM | 1.04 µM | 0.585 µM | 1.52 µM | 0.194 µM | 0.821 µM | 0.147 µM | 13.4 µM | 0.208 µM | 0.99 µM | 0.0996 µM | 1.02 µM | 0.0918 µM | 0.368 µM |  |  |
| CC1CCC2C(C)C(=O)OC2C2(C)C(=O)C=CC12 (stereo unspecified) |  | > 10 µM |  |  |  | > 10 µM |  | > 10 µM |  | > 10 µM |  | > 10 µM |  | > 10 µM |  | > 10 µM |  | > 10 µM | > 10 µM |  |
| O=C1NC(O)n2c(=O)[nH]c(=O)n21 (stereo unspecified) |  | > 100 µM |  |  |  | > 100 µM |  | > 100 µM |  | > 100 µM |  | > 100 µM |  | > 100 µM |  | > 100 µM |  | > 100 µM | > 100 µM |  |
| COC(=O)C1C=CCC2CCCCC21N1CCCC1 (stereo unspecified) |  | > 100 µM |  | > 100 µM |  | > 100 µM |  | > 100 µM |  | > 100 µM |  |  |  | > 100 µM |  | > 100 µM |  | > 100 µM | > 100 µM |  |
| C1=CC(=P(c2ccccc2)(c2ccccc2)c2ccccc2)C=C1 |  | 31.6 µM |  |  |  | 20.8 µM |  | 22.8 µM |  | 10.1 µM |  | 11.3 µM |  | 56 µM |  |  |  | 28.8 µM | 23.7 µM |  |
| Cc1cccc(C2NC(=O)c3ccccc3N2)c1 (stereo unspecified) |  | > 100 µM |  | > 73.4 µM |  | > 100 µM |  | > 100 µM |  | 46.1 µM |  |  |  | > 100 µM |  | > 31.6 µM |  | > 100 µM | > 26.3 µM |  |
| OCC(O)C(O)C(O)C(/C=N\Nc1ncnc2c(Br)cc(Br)cc12)=N/Nc1ncnc2c(Br)cc(Br)cc12 (stereo unspecified) |  |  | 22.5 µM and > 100 µM | 38.8 µM and > 100 µM |  |  |  |  | 10.1 µM and 3.6 µM | 24.9 µM and > 100 µM |  | 26.9 µM and > 100 µM |  | > 100 µM |  |  | 2.73 µM and 5.76 µM |  | 42 µM and > 100 µM |  |
| O=C1c2cccc3cccc(c23)C(=O)N1CCCCCN1CCN(CCN=c2cc3n(-c4ccc(Cl)cc4)c4ccccc4nc-3cc2Nc2ccc(Cl)cc2)CC1 | 23 µM | > 50 µM | > 50 µM | > 50 µM | 14.5 µM | 39.6 µM | 7.32 µM | 19.7 µM |  |  | 6.92 µM | 33.3 µM | 15.3 µM | > 50 µM | 14.2 µM | 40.3 µM | 9.6 µM | 30.7 µM | > 50 µM | 9.13 µM |
| COc1cc2c(cc1C)NC(=O)/C2=C/c1ccnc2ccccc12 | 6.88 µM | 36.3 µM |  |  |  |  | 12.4 µM | > 50 µM | 8.35 µM | 41.7 µM | 6.34 µM | 33.6 µM | > 50 µM | > 50 µM | 9.92 µM | 35.9 µM | 35.3 µM | > 50 µM |  |  |
| N=C1CCCC1C(=S)SCCC(N)=O (stereo unspecified) |  | > 100 µM |  | > 100 µM |  | > 100 µM |  | > 100 µM |  | > 100 µM |  |  |  | > 100 µM |  | > 100 µM |  | > 100 µM | > 100 µM |  |
| O=C(Nc1ccc(Cl)cc1C(F)(F)F)C(=O)Nn1c(=S)[nH]c2ccccc2c1=O |  |  |  | > 100 µM |  | > 100 µM |  | > 100 µM |  |  |  | > 100 µM |  | > 100 µM |  | > 100 µM |  | > 100 µM | > 100 µM |  |
| Cc1cc2c(c(C(=O)O)c1C)-c1cccc(Cl)c1C2=O |  | > 100 µM |  |  |  | > 100 µM |  |  |  | > 100 µM |  | > 100 µM |  | > 100 µM |  | > 100 µM |  | > 100 µM | > 100 µM |  |
| CN1CCCC2[C@@H]3CCC4c5nonc5CC[C@]4(C)C3CC[C@@]21C (stereo partly specified) |  | > 100 µM |  |  |  | > 100 µM |  |  |  | > 100 µM |  | > 100 µM |  | > 100 µM |  | > 100 µM |  | > 100 µM | > 100 µM |  |
| CC(=O)Nc1ccc(C2CC(c3ccc([N+](=O)[O-])cc3)=Nc3ccccc3S2)cc1 (stereo unspecified) |  | 62.4 µM |  | 33.3 µM |  | > 100 µM |  |  |  |  |  | 42 µM |  | 32.3 µM |  | 29.8 µM |  | 31.1 µM | 28.7 µM |  |
| CCN(CC)C(=S)SSC(C)C | 31.8 µM | > 100 µM |  |  | 15.8 µM | 37.6 µM | 15.2 µM | 36.1 µM | 0.0295 µM | 1.34 µM |  |  | 3.01 µM | 14 µM | 13.8 µM | 32.1 µM | 17.3 µM | 31.7 µM | 29.8 µM | 14.8 µM |
| COc1cc(C)c2c(c1)CN1CN2Cc2cc(OC)cc(C)c21 |  |  |  |  |  | 46.3 µM |  | > 100 µM |  | > 100 µM |  | > 100 µM |  | > 100 µM |  | > 100 µM |  | > 100 µM | > 100 µM |  |
| O=c1c(-c2ccc3c(c2)OCO3)coc2c3c(ccc12)OCO3 |  | 44.9 µM |  | 83.1 µM |  | 49.7 µM |  | 38.5 µM |  | 37.5 µM |  | > 100 µM |  | > 100 µM |  | > 100 µM |  | 35.5 µM |  |  |
| COc1cc2c(/C=C3\C(=O)Nc4ccccc43)c[nH]c2cc1C | 0.112 µM | 32.3 µM | < 0.0243 µM | 16.5 µM |  |  | 1.54 µM | 22.3 µM | 0.833 µM | > 35.3 µM | 0.225 µM | 61.4 µM | < 0.0209 µM | 39.8 µM | 0.94 µM | 4.82 µM | < 0.0218 µM | 12.6 µM | > 100 µM | 0.152 µM |
| COc1cc2c(cc1OCCNC(=O)/C=C1\C[C@H]3C=Nc4cc(OCc5ccccc5)c(OC)cc4C(=O)N3C1)N=C[C@@H]1CCCN1C2=O | 8.62 µM | > 100 µM |  |  |  |  |  |  | 1.62 µM | 3.88 µM | 2.78 µM | 13.6 µM | 5.36 µM | 24.7 µM | 2.82 µM | 8.35 µM | 3.68 µM | 16.8 µM | > 100 µM | 20.3 µM |
| CCOc1c(Br)cc(Br)cc1C=C(C#N)C#N |  | > 10 µM |  | 8.8 µM |  | > 10 µM |  | > 10 µM |  |  |  | > 10 µM |  | > 10 µM |  | > 10 µM |  | > 10 µM | > 10 µM |  |
| COc1cc(O)ccc1C(=S)SC |  | > 100 µM |  |  |  | > 100 µM |  | > 100 µM |  | > 100 µM |  | > 100 µM |  | > 100 µM |  | > 100 µM |  | > 100 µM | > 100 µM |  |
